# Assay results taken from US11897904B2, “Herbicidally active bicyclic benzamides” (Bayer Aktiengesellschaft, priority 2017, dated 2024).
# Tests used:
# [1] = tested on: ABUTH; assay: Post-emergence herbicidal action; format: in vivo, Abutilon theophrasti; conditions: post-emergence, rated visually after about 3 weeks vs untreated controls
# Method: (§1) 2. Post-Emergence Herbicidal Action and Crop Plant Compatibility
# (§2) Seeds of monocotyledonous and dicotyledonous weeds and crop plants are placed in sandy loam in plastic or organic planting pots, covered with soil and cultivated in a greenhouse under controlled growth conditions. 2 to 3 weeks after sowing, the test plants are treated at the one-leaf stage. The compounds of the invention, formulated in the form of wettable powders (WP) or as emulsion concentrates (EC), are then sprayed onto the green parts of the plants as aqueous suspension or emulsion with addition of 0.5% additive at a water application rate of […] (converted). After the test plants had been kept in the greenhouse under optimum growth conditions for about 3 weeks, the activity of the preparations is rated visually in comparison to untreated controls. The tables below show the herbicidal activity of numerous compounds according to the invention against important harmful plants. For example, 100% activity=the plants have died, 0% activity=like control plants.
# [2] = tested on: VIOTR; assay: Post-emergence herbicidal action; format: in vivo, Viola tricolor; conditions: rated visually after about 3 weeks vs untreated controls
# Method: as §1, §2
# [3] = tested on: AMARE; assay: Post-emergence herbicidal action; format: in vivo, Amaranthus retroflexus; conditions: rated visually after about 3 weeks vs untreated controls
# Method: as §1, §2
# [4] = tested on: MATIN; assay: Pre-emergence herbicidal action; format: in vivo, Matricaria inodora; conditions: pre-emergence, 80 g/ha, scored visually after about 3 weeks vs untreated controls
# Description: (§3) 1. Pre-Emergence Herbicidal Action and Crop Plant Compatibility
# (§4) Seeds of monocotyledonous and dicotyledonous weed plants and crop plants are placed in plastic or organic planting pots and covered with soil. The compounds of the invention, formulated in the form of wettable powders (WP) or as emulsion concentrates (EC), are then applied onto the surface of the covering soil as aqueous suspension or emulsion with addition of 0.5% additive at a water application rate of 600 l/ha (converted). After the treatment, the pots are placed in a greenhouse and kept under good growth conditions for the trial plants. After about 3 weeks, the effect of the preparations is scored visually in comparison with untreated controls as percentages. The tables below show the herbicidal activity of numerous compounds according to the invention against important harmful plants. For example, 100% activity=the plants have died, 0% activity=like control plants.
# [5] = tested on: PHBPU; assay: Post-emergence herbicidal action; format: in vivo, Ipomoea purpurea; conditions: rated visually after about 3 weeks vs untreated controls
# Method: as §1, §2
# [6] = tested on: VERPE; assay: Post-emergence herbicidal action; format: in vivo, Veronica persica; conditions: 80 g/ha, rated visually after about 3 weeks vs untreated controls
# Method: as §1, §2
# [7] = tested on: STEME; assay: Post-emergence herbicidal action; format: in vivo, Stellaria media; conditions: rated visually after about 3 weeks vs untreated controls
# Method: as §1, §2
# [8] = tested on: VERPE; assay: Pre-emergence herbicidal action; format: in vivo, Veronica persica; conditions: 320 g/ha, scored visually after about 3 weeks vs untreated controls
# Description: as §3, §4
# [9] = tested on: STEME; assay: Pre-emergence herbicidal action; format: in vivo, Stellaria media; conditions: 80 g/ha, scored visually after about 3 weeks vs untreated controls
# Description: as §3, §4
# [10] = tested on: AMARE; assay: Pre-emergence herbicidal action; format: in vivo, Amaranthus retroflexus; conditions: scored visually after about 3 weeks vs untreated controls
# Description: as §3, §4
# [11] = tested on: VIOTR; assay: Pre-emergence herbicidal action; format: in vivo, Viola tricolor; conditions: 80 g/ha, scored visually after about 3 weeks vs untreated controls
# Description: as §3, §4
# [12] = tested on: ABUTH; assay: Pre-emergence herbicidal action; format: in vivo, Abutilon theophrasti; conditions: pre-emergence, 80 g/ha, scored visually after about 3 weeks vs untreated controls
# Description: as §3, §4
# [13] = tested on: SETVI; assay: Post-emergence herbicidal action; format: in vivo, Setaria viridis; conditions: 80 g/ha, rated visually after about 3 weeks vs untreated controls
# Method: as §1, §2
# [14] = tested on: ECHCG; assay: Post-emergence herbicidal action; format: in vivo, Echinochloa crus-galli; conditions: 80 g/ha, rated visually after about 3 weeks vs untreated controls
# Method: as §1, §2
# [15] = tested on: CYPES; assay: Pre-emergence herbicidal action; format: in vivo, Cyperus esculentus; conditions: dosage 320 g/ha, scored visually after about 3 weeks vs untreated controls, 100% = plants have died, 0% = like control plants
# Description: as §3, §4
structure (smiles),measurement,setting,value
Cn1ncnc1NC(=O)c1ccc(C(F)(F)F)c2c1OCS2 [Example 1-35],herbicidal activity ABUTH,[1]; 20 g/ha,80%
same,herbicidal activity VIOTR,[2]; 20 g/ha,80%
Cn1ncnc1NC(=O)c1ccc(C(F)(F)F)c2c1OC[S+]2[O-] (centres unmarked) [Example 1-50],herbicidal activity ABUTH,[1]; 20 g/ha,80%
same,herbicidal activity AMARE,[3]; 20 g/ha,80%
same,herbicidal activity MATIN,[4],90%
same,herbicidal activity VIOTR,[2]; 20 g/ha,80%
Cn1ncnc1NC(=O)c1ccc(C(F)(F)F)c2c1OCS2(=O)=O [Example 1-65],herbicidal activity PHBPU,[5]; 20 g/ha,80%
same,herbicidal activity AMARE,[3]; 20 g/ha,80%
CSc1ccc(C(=O)Nc2nnnn2C)c2c1OC(F)(F)O2 [Example 2-13],herbicidal activity VERPE,[6],90%
same,herbicidal activity STEME,[7]; 80 g/ha,80%
same,herbicidal activity ABUTH,[1]; 80 g/ha,80%
same,herbicidal activity AMARE,[3]; 80 g/ha,80%
same,herbicidal activity VERPE,[8],90%
Cn1nnnc1NC(=O)c1ccc(S(C)(=O)=O)c2c1OC(F)(F)O2 [Example 2-15],herbicidal activity AMARE,[3]; 80 g/ha,80%
same,herbicidal activity VERPE,[8],90%
"Cn1nnnc1NC(=O)c1ccc(C(F)(F)F)c2c1SCS2 [Example 2-21, 7-(trifluoromethyl)-1,3-benzodithiolane-N-(1-methyltetrazol-5-yl)-4-carboxamide]",herbicidal activity STEME,[7]; 20 g/ha,80%
same,herbicidal activity STEME,[9],90%
same,herbicidal activity VIOTR,[2]; 20 g/ha,80%
Cn1nnnc1NC(=O)c1ccc(C(F)F)c2c1SCS2 [Example 2-22],herbicidal activity PHBPU,[5]; 20 g/ha,80%
same,herbicidal activity VIOTR,[2]; 20 g/ha,100%
Cn1nnnc1NC(=O)c1ccc(C(F)(F)F)c2c1S(=O)(=O)CS2(=O)=O [Example 2-43],herbicidal activity AMARE,[10]; 80 g/ha,100%
same,herbicidal activity AMARE,[3]; 20 g/ha,80%
same,herbicidal activity VIOTR,[11],100%
same,herbicidal activity MATIN,[4],80%
same,herbicidal activity ABUTH,[12],100%
same,herbicidal activity STEME,[9],90%
same,herbicidal activity VIOTR,[2]; 20 g/ha,90%
Cc1ccc(C(=O)Nc2nnnn2C)c2c1SCO2 [Example 2-50],herbicidal activity PHBPU,[5]; 80 g/ha,80%
Cn1nnnc1NC(=O)c1ccc(C(F)F)c2c1OCS2 [Example 2-54],herbicidal activity VERPE,[6],90%
same,herbicidal activity SETVI,[13],90%
same,herbicidal activity ABUTH,[1]; 80 g/ha,80%
same,herbicidal activity ECHCG,[14],100%
same,herbicidal activity AMARE,[10]; 320 g/ha,80%
same,herbicidal activity PHBPU,[5]; 80 g/ha,80%
same,herbicidal activity AMARE,[3]; 80 g/ha,90%
same,herbicidal activity VIOTR,[2]; 80 g/ha,100%
Cn1nnnc1NC(=O)c1ccc(S(C)(=O)=O)c2c1OCS2 [Example 2-58],herbicidal activity ABUTH,[1]; 20 g/ha,80%
same,herbicidal activity AMARE,[3]; 20 g/ha,80%
Cc1ccc(C(=O)Nc2nnnn2C)c2c1[S+]([O-])CO2 (centres unmarked) [Example 2-65],herbicidal activity AMARE,[10]; 320 g/ha,90%
same,herbicidal activity CYPES,[15],90%
same,herbicidal activity VERPE,[8],80%
